# Assay results published in publication PMC5732813, “Novel piplartine-containing ruthenium complexes: synthesis, cell growth inhibition, apoptosis induction and ROS production on HCT116 cells” (Oncotarget, 2017).
# Values joined by “and” are separate entries in the source; they are usually repeats but may differ in a detail not shown here. Equal values may be shown once.
# Key:
# [1] = tested on: B16-F10 (murine melanoma); experiment: Cytotoxic activity, alamar blue assay, B16-F10; type: cell-based; details: B16-F10, IC50 72h
# Text: HCT116 (human colon carcinoma), HepG2 (human hepatocellular carcinoma), HSC-3 (human oral squamous cell carcinoma), SCC-4 (human oral squamous cell carcinoma), SCC-9 (human oral squamous cell carcinoma), HL-60 (human promyelocytic leukemia), K-562 (human chronic myelogenous leukemia), B16-F10 (murine melanoma), MRC-5 (human lung fibroblast), WT SV40 MEF (wild-type immortalized mouse embryonic fibroblast) and BAD KO SV40 MEF (BAD gene knockout immortalized mouse embryonic fibroblast) cell lines were obtained from the American Type Culture Collection (ATCC, Manassas, VA, USA) and cultured in RPMI-1640 medium (Gibco-BRL, Gaithersburg, MD, USA) with 10% fetal bovine serum (Life, Carlsbad, CA, USA), 2 mM L-glutamine (Vetec Química Fina, Duque de Caxias, RJ, Brazil) and 50 μg/mL gentamycin (Life, Carlsbad, CA, USA). Adherent cells were collected by treatment with 0.25% trypsin EDTA solution (Gibco-BRL, Gaithersburg, MD, USA). All cell lines were cultured in flasks at 37°C in 5% CO2 and sub-cultured every 3-4 days to maintain exponential growth.
# Cell viability was quantified using the alamar blue assay, according to Ahmed et al.. Cells were inserted in 96-well plates for all experiments (7 x 10^4 cells/mL for adherent cells or 3 x 10^5 cells/mL for suspended cells in 100 μL of medium). […] Negative controls received the vehicle that was used for diluting the compounds tested.
# [2] = tested on: cancer multicellular spheroids formed from HCT116 cells; experiment: 3D multicellular spheroids culture, alamar blue assay; type: cell-based, human
# In short: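 HCT116 spheroids formed from 0.5 × 10^6 cells/mL on cell-repellent plates in RPMI 1640 with 10% FBS, 2 mM glutamine and 3% matrigel at 37°C, 5% CO2. Vehicle served as negative control. Endpoints: light-microscopy morphology and alamar blue viability.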
# [3] = tested on: WT SV40 MEF (wild-type immortalized mouse embryonic fibroblast); experiment: Cytotoxic activity, alamar blue assay, WT SV40 MEF; type: cell-based; details: WT SV40 MEF, 72 h incubation, alamar blue; read-out: IC50
# HCT116 cells = experiment: Gene expression analysis by qPCR array (TaqMan Array Human Molecular Mechanisms of Cancer); type: cell-based; details: HCT116, 12 h; DOX 1 μM, PL 10 μM, 1 2.5 μM, 2 5 μM; negative control RQ = 1.0
# Method: HCT116 cells were plated in bottles tissue culture (7x10^4 cells/mL). After 12h of incubation with the complexes, total RNA was isolated from the cells using the RNeasy Plus mini kit (Qiagen, Hilden, Germany) according to the manufacturer’s instructions. The RNA was evaluated by fluorimetry (QuBit™, Life Technologies, Camarillo, CA, EUA). RNA reverse transcription was performed using Superscript VILO™ (Invitrogen Corporation, Waltham, MA, USA). A 96-well plate TaqMan® Array Human Molecular Mechanisms of Cancer (ID 4418806, Applied Biosystems™, Foster City, CA, EUA) was used for the gene expression study by qPCR. The reactions were conducted in the ABI ViiA7 (Applied Biosystems™, Foster City, CA, EUA). The cycle conditions comprised 2 min at 50 °C, 20 s at 95 °C, then 40 cycles of 3 s at 95 °C and 30 s at 60 °C. […] The GAPDH, 18S and HPRT1 genes were used for normalization. All experiments were performed in DNase/RNase free conditions.
substance,measurement,setting,value
[Ru(piplartine)(dppb)(bipy)](PF6)2 [Complex 2],more potent than metal-free piplartine,[1],3 fold
same,IC50,"[2]; 3D spheroids of HCT116, 72 h treatment, alamar blue, read-out: IC50",8.3 µM
same,more potent than metal-free piplartine,"[2]; 3D spheroids of HCT116, IC50 72 h",~2 fold
same,IC50,[3],6 µM
same,RQ ABL1,HCT116 cells,0.863
same,RQ AKT1,HCT116 cells,0.642
same,RQ AKT2,HCT116 cells,0.592
same,RQ APC,HCT116 cells,0.576
same,RQ BAX,HCT116 cells,0.739
same,RQ BCAR1,HCT116 cells,0.596
same,RQ BCL2,HCT116 cells,0.8 and 0.748
same,RQ BCL2L1,HCT116 cells,0.739
same,RQ BCL2L11,HCT116 cells,0.904
same,RQ BID,HCT116 cells,0.671
same,RQ BRAF,HCT116 cells,0.781
same,RQ CASP8,HCT116 cells,0.930
same,RQ CASP9,HCT116 cells,0.828
same,RQ CCND1,HCT116 cells,0.5 and 0.461
same,RQ CCND3,HCT116 cells,0.723
same,RQ CCNE1,HCT116 cells,0.893
same,RQ CDC42,HCT116 cells,1.411
same,RQ CDH1,HCT116 cells,1.1 and 1.098
same,RQ CDK2,HCT116 cells,0.693
same,RQ CDK4,HCT116 cells,0.898
same,RQ CDKN1A,HCT116 cells,0.996
same,RQ CDKN1B,HCT116 cells,0.783
same,RQ CDKN2A,HCT116 cells,1.2 and 1.153
same,RQ CRK,HCT116 cells,0.758
same,RQ CTNNB1,HCT116 cells,0.877
same,RQ CYCS,HCT116 cells,1.0 and 1.043
same,RQ E2F1,HCT116 cells,0.736
same,RQ EGFR,HCT116 cells,"11,276.3 and 11,276.298"
same,RQ ELK1,HCT116 cells,0.628
same,RQ ERBB2,HCT116 cells,1.006
same,RQ FADD,HCT116 cells,74.1 and 74.142
same,RQ FAS,HCT116 cells,1.037
same,RQ FGF2,HCT116 cells,1.003
same,RQ FYN,HCT116 cells,1.169
same,RQ FZD1,HCT116 cells,0.9 and 0.860
same,RQ GRB2,HCT116 cells,0.693
same,RQ GSK3B,HCT116 cells,0.738
same,RQ GUSB,HCT116 cells,2.9
same,RQ HRAS,HCT116 cells,0.561
same,RQ IGF1R,HCT116 cells,0.7 and 0.677
same,RQ ITGA2B,HCT116 cells,0.1 and 0.135
same,RQ ITGAV,HCT116 cells,"1,149.0 and 1,149.015"
same,RQ ITGB1,HCT116 cells,0.579
same,RQ ITGB3,HCT116 cells,1.243
same,RQ JUN,HCT116 cells,2.3 and 2.306
same,RQ KDR,HCT116 cells,1.4 and 1.408
same,RQ KRAS,HCT116 cells,0.979
same,RQ MAP2K1,HCT116 cells,"2,107.2 and 2,107.239"
same,RQ MAP3K5,HCT116 cells,4.3 and 4.314
same,RQ MAPK1,HCT116 cells,1.062
same,RQ MAPK3,HCT116 cells,1.9 and 1.853
same,RQ MAPK8,HCT116 cells,0.623
same,RQ MAPK14,HCT116 cells,1.145
same,RQ MAX,HCT116 cells,0.9 and 0.912
same,RQ MDM2,HCT116 cells,1.272
same,RQ MYC,HCT116 cells,0.796
same,RQ NFKB1,HCT116 cells,0.699
same,RQ NFKB2,HCT116 cells,1.536
same,RQ NFKBIA,HCT116 cells,0.9 and 0.894
same,RQ NRAS,HCT116 cells,0.923
same,RQ PIK3CA,HCT116 cells,0.565
same,RQ PIK3R1,HCT116 cells,1.3 and 1.299
same,RQ PTEN,HCT116 cells,0.8 and 0.776
same,RQ PTK2,HCT116 cells,2.4 and 2.357
same,RQ PTK2B,HCT116 cells,1.0 and 1.024
same,RQ RAC1,HCT116 cells,2.7 and 2.676
same,RQ RAF1,HCT116 cells,0.9 and 0.909
same,RQ RB1,HCT116 cells,0.821
same,RQ RELA,HCT116 cells,0.845
same,RQ RHOA,HCT116 cells,1.017
same,RQ SMAD4,HCT116 cells,2.1 and 2.050
same,RQ SOS1,HCT116 cells,0.2 and 0.188
same,RQ SPP1,HCT116 cells,10.1 and 10.094
same,RQ SRC,HCT116 cells,0.801
same,RQ TCF3,HCT116 cells,0.608
same,RQ TGFB1,HCT116 cells,0.868
same,RQ TGFBR1,HCT116 cells,0.781
same,RQ TGFBR2,HCT116 cells,1.1 and 1.085
same,RQ TP53,HCT116 cells,1.5 and 1.466
same,RQ VEGFA,HCT116 cells,1.321
